Results reported in patent US10500209B2, “Quinazolinones as bromodomain inhibitors” (Zenith Epigenetics Ltd., priority 2013, dated 2019).

Tests used:
[1] = biological target: T1, Brd4 bromodomain 1 (BRD4(1)) (Homo sapiens, UniProt O60885); assay: Inhibition of tetra-acetylated histone H4 binding to BET bromodomains (TR-FRET); design: key: Active: Compounds with an IC50 value less than 30 μM were deemed to be active.; Not Active: Compounds with an IC50 value less than 30 μM were deemed to be active; settings: first bromodomain of Brd4, tetra-acetylated histone H4 peptide
T1 construct: made in house; host or cells: E. coli BL21(DE3)
How it was run: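 N-terminally His-tagged bromodomain (200 nM) from E. coli was mixed with biotinylated tetra-acetylated histone H4 peptide (25-50 nM), Eu-streptavidin and XL665 anti-His, plus compound, in HEPES pH 7.4 buffer with 0.2% DMSO. After 2 h at room temperature, the 665/620 nm TR-FRET decrease gave IC50 from dose-response curves.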

c-myc in MV4-11 cells = assay: Inhibition of c-myc expression in cancer cell lines (mRNA, real-time PCR); format: cell-based, Human; design: key: Active: Compounds with an IC50 value less than 30 μM were deemed to be active.; Not Active: Compounds with an IC50 value less than 30 μM were deemed to be active; settings: 3 h
Experimental: MV4-11 cells (2.5×10^4 cells) were plated in 96 well U-bottom plates with test compound or DMSO (0.1%), and incubated for 3 h at 37° C. Cells were then harvested by centrifugation, lysed, and mRNA was isolated using the mRNA catcher plus kit (Invitrogen). Reverse transcription of the mRNA and duplex amplification of the c-myc and cyclophilin cDNAs was performed using the RNA Ultrasense kit (Invitrogen) and a ViiA7 real-time PCR machine (Applied Biosystems). IC50 values were determined from a dose response curve.

human AML MV-4-11 cells = assay: Inhibition of cell proliferation in cancer cell lines (CellTiter Aqueous One); format: cell-based; design: key: Active: Compounds with an IC50 value less than 30 μM were deemed to be active.; Not Active: Compounds with an IC50 value less than 30 μM were deemed to be active; settings: 72 h
Experimental: MV4-11 cells: 96-well plates were seeded with 5×10^4 cells per well of exponentially growing human AML MV-4-11 (CRL-9591) cells and immediately treated with two-fold dilutions of test compounds, ranging from 30 μM to 0.2 μM. Triplicate wells were used for each concentration, as well as a media only and three DMSO control wells. The cells and compounds were incubated at 37° C., 5% CO2 for 72 h before adding 20 μL of the CellTiter Aqueous One Solution (Promega) to each well and incubating at 37° C., 5% CO2 for an additional 3-4 h. The absorbance was taken at 490 nm in a spectrophotometer and the percentage of proliferation relative to DMSO-treated cells was calculated after correction from the blank well. IC50 were calculated using the GraphPad Prism software.

hIL-6 mRNA = assay: Inhibition of hIL-6 mRNA transcription in LPS-stimulated U937 macrophages; format: cell-based, human; design: key: Active: Compounds with an IC50 value less than 30 μM were deemed to be active.; Not Active: Compounds with an IC50 value less than 30 μM were deemed to be active; settings: U937 cells differentiated with PMA, LPS stimulation, 3 h
Experimental: In this example, hIL-6 mRNA in tissue culture cells was quantitated to measure the transcriptional inhibition of hIL-6 when treated with a compound of the present disclosure.
A human leukemic monocyte lymphoma cell line (U937) was plated (3.2×10^4 cells per well) in a 96-well plate in 100 μL RPMI-1640 containing 10% FBS and penicillin/streptomycin, and differentiated into macrophages for 3 days in 60 ng/mL PMA ([…]) at 37° C. in 5% CO2 prior to the addition of the compound of interest. The cells were pretreated for 1 h with the test compound prior to stimulation with 1 ug/mL lipopolysaccharide from Escherichia coli. The cells were incubated at 37° C. for 3 h before the cells were harvested. At time of harvest, the spent media was removed from the cells and the cells were rinsed in 200 μL PBS. Cell lysis solution (70 μL) was added the cells in each well and incubated for 5-10 min at room temperature, to allow for complete cell lysis and detachment. mRNA was then prepared using the “mRNA Catcher PLUS plate” (Invitrogen), according to the protocol supplied. After the last wash, as much wash buffer as possible was aspirated without allowing the wells to dry. Elution buffer (E3, 70 μL) was then added to each well. mRNA was then eluted by incubating the mRNA Catcher PLUS plate with Elution Buffer for 5 min at 68° C. and then immediately placing the plate on ice.
The eluted mRNA isolated was then used in a one-step quantitative real-time PCR reaction, using components of the Ultra Sense Kit together with Applied Biosystems primer-probe mixes. Real-time PCR data was analyzed, normalizing the Ct values for hIL-6 to an internal control, prior to determining the fold induction of each unknown sample, relative to the control.

In the case of `COc1ccc(-c2nc3cc(OC)cc(OC)c3c(=O)[nH]2)c(NC2CCN(C(C)C)CC2)c1` [Example 3, 2-(2-((1-isopropylpiperidin-4-yl)amino)-4-methoxyphenyl)-5,7-dimethoxyquinazolin-4(3H)-one], the “FRET activity BRD4(1)” value [1] was “Active”, the “c-myc activity (IC50 < 30 μM)” value (c-myc in MV4-11 cells) was “Active” and the “Cell Proliferation activity (IC50 < 30 μM)” value (“Cell Proliferation activity” below) (human AML MV-4-11 cells) was “Active”. The “IL-6 activity (IC50 < 30 μM)” value (hIL-6 mRNA) was “Active” and the melting point was 248 to 250 °C.

With `COc1ccc(-c2nc3cc(OC)cc(OC)c3c(=O)[nH]2)c(NCC2CCN(C)C2)c1` (stereo not drawn) [Example 7, 5,7-Dimethoxy-2-(4-methoxy-2-(((1-methylpyrrolidin-3-yl)methyl)amino)phenyl)-quinazolin-4(3H)-one] the “FRET activity BRD4(1)” value [1] was “Active”, the “c-myc activity (IC50 < 30 μM)” value (c-myc in MV4-11 cells) was “Active” and the “Cell Proliferation activity” value (human AML MV-4-11 cells) was “Active”. The “IL-6 activity (IC50 < 30 μM)” value (hIL-6 mRNA) was “Active” and the melting point was 233 to 235 °C.

For `COc1ccc(-c2nc3cc(OC)cc(OC)c3c(=O)[nH]2)c(NCCNC(C)C)c1` [Example 8, 2-(2-((2-(Isopropylamino)ethyl)amino)-4-methoxyphenyl)-5,7-dimethoxyquinazolin-4(3H)-one], the “FRET activity BRD4(1)” value [1] was “Active”, the “c-myc activity (IC50 < 30 μM)” value (c-myc in MV4-11 cells) was “Active” and the “Cell Proliferation activity” value (human AML MV-4-11 cells) was “Active”. The “IL-6 activity (IC50 < 30 μM)” value (hIL-6 mRNA) was “Active” and the melting point was 262 to 264 °C.

In the case of `COc1cc(OC)c2c(=O)[nH]c(-c3ncccc3NC3CCN(C(C)C)CC3)nc2c1` [Example 18, 2-(3-((1-Isopropylpiperidin-4-yl)amino)pyridin-2-yl)-5,7-dimethoxyquinazolin-4(3H)-one], the “FRET activity BRD4(1)” value [1] was “Active”, the “c-myc activity (IC50 < 30 μM)” value (c-myc in MV4-11 cells) was “Active” and the “Cell Proliferation activity” value (human AML MV-4-11 cells) was “Active”. For the same compound, the “IL-6 activity (IC50 < 30 μM)” value (hIL-6 mRNA) was “Active” and the melting point was 170 to 172 °C.

In the case of `COc1ccc(-c2nc3cc(OC)cc(OC)c3c(=O)[nH]2)c(NCCN2CCN(C(C)C)CC2)c1` [Example 22, 2-(2-((2-(4-Isopropylpiperazin-1-yl)ethyl)amino)-4-methoxyphenyl)-5,7-dimethoxyquinazolin-4(3H)-one], the “FRET activity BRD4(1)” value [1] was “Active”, the “c-myc activity (IC50 < 30 μM)” value (c-myc in MV4-11 cells) was “Active” and the “Cell Proliferation activity” value (human AML MV-4-11 cells) was “Active”. For the same compound, the “IL-6 activity (IC50 < 30 μM)” value (hIL-6 mRNA) was “Active” and the melting point was 227 to 228 °C.

For `COc1ccc(-c2nc3cc(OC)cc(OC)c3c(=O)[nH]2)c(NCCCN2CCNCC2)c1` [Example 28, 5,7-Dimethoxy-2-(4-methoxy-2-[3-(piperazin-1-yl)propylamino]phenyl)quinazolin-4(3H)-one], the “FRET activity BRD4(1)” value [1] was “Active”, the “c-myc activity (IC50 < 30 μM)” value (c-myc in MV4-11 cells) was “Active” and the “Cell Proliferation activity” value (human AML MV-4-11 cells) was “Active”. For the same compound, the “IL-6 activity (IC50 < 30 μM)” value (hIL-6 mRNA) was “Active” and the melting point was 225 to 228 °C.

For `COc1ccc(-c2nc3cc(OC)cc(OC)c3c(=O)[nH]2)c(NC2CCN(C(C)=O)CC2)c1` [Example 39, 2-(2-((1-Acetylpiperidin-4-yl)amino)-4-methoxyphenyl)-5,7-dimethoxyquinazolin-4(3H)-one], the “FRET activity BRD4(1)” value [1] was “Active”, the “c-myc activity (IC50 < 30 μM)” value (c-myc in MV4-11 cells) was “Active” and the “Cell Proliferation activity” value (human AML MV-4-11 cells) was “Active”. The “IL-6 activity (IC50 < 30 μM)” value (hIL-6 mRNA) was “Active”.

With `COc1cc(OC)c2c(=O)[nH]c(-c3ncccc3NC3CCN(C(=O)C(F)(F)F)CC3)nc2c1` [Example 46, 5,7-Dimethoxy-2-(3-((1-(2,2,2-trifluoroacetyl)piperidin-4-yl)amino)pyridin-2-yl)quinazolin-4(3H)-one] the “FRET activity BRD4(1)” value [1] was “Active”, the “c-myc activity (IC50 < 30 μM)” value (c-myc in MV4-11 cells) was “Active” and the “Cell Proliferation activity” value (human AML MV-4-11 cells) was “Active”. For the same compound, the “IL-6 activity (IC50 < 30 μM)” value (hIL-6 mRNA) was “Active” and the melting point was 218 to 219 °C.
